Several values for one entry are separate records, joined by “and”; a condition that tells them apart may be missing. Equal values may be shown once. Entries after “also recorded” stand apart in the source; their conditions may differ. Non-standard residues stand in square brackets, D forms with d. Residues, ends and D or L forms follow the SMILES beside them. ξ: configuration not given here. Thr(3ξ) = CC(O)[C@H](N)C(=O)O
Columns and labels:
[1] = tested on: blood-brain barrier (BBB); test: In vivo brain delivery of IRdye800CW-IgG mAb, NIRF quantification in brain homogenates; settings: C57BL/6 mice; for average amount of IgG mAb in the brain: IRdye800CW-IgG mAb 21.6 nmol/kg i.v. alone or with 13 μmol/kg peptide, 15 min circulation, n=3; for brain delivery of IgG mAb compared to control (IgG mAb alone): IgG mAb 21.6 nmol/kg + 13 μmol/kg peptide i.v.
Experimental: (§1) The activity of each peptide in enhancing blood-brain barrier (BBB) penetration was evaluated by delivering IRdye800CW donkey anti-goat IgG mAb in C57BL/6 mice; the amounts of mAb in the brain were determined using NIRF imaging. Each group contained 3 mice per group (n=3) with a mixture of male and female mice, selected randomly for each arm of the study. The injection solution was prepared by adding 600 μL PBS into 0.5 mg lyophilized IgG mAb; then, approximately 1.5 mg lyophilized peptide was added into the mixture yielding the injectable formulation. A 100 μL solution of a mixture containing IgG mAb (21.6 nmol/kg) along with 13 μmol/kg peptide of the present technology was administered via tail vein. As a control, 100 μL of IgG mAb alone was administered via i.v. route. After the delivered molecules had been circulating for 15 min, the mice were sacrificed; then, a mixture of PBS with 0.5% Tween20 was administered for cardiac perfusion to remove the blood and […] molecules into the brain microvessels. The brain and other organs such as lung, heart, spleen, liver, and kidney were harvested and rinsed with PBS. The isolated organs were scanned with Odyssey® CLx for mAb quantification.
The brain deposition of IgG mAb was also quantified by NIRF imaging in brain homogenates. The isolated brains were mechanically homogenized in 2.0 mL of PBS. To make the standard solutions, IRDye800CW IgG mAb stock solution (70 μg/mL) was prepared; it was then diluted with various amounts of PBS to make six different mAb concentrations. To generate a calibration curve, the brain homogenate (200 μL) was aliquoted out to a 96-well plate. 10 μL of each concentration of IgG mAb was added to three different wells of blank brain homogenates. The standard spiked homogenates were at a range of 10-200 ng/mL IgG mAb in brain homogenate. The wells were scanned using the Odyssey® CLx scanner, and the signal intensities vs. concentrations of mAb per gram of brain were used to generate a calibration curve.
(§2) The BBB modulatory activities of ADTC5 and HAV6 to enhance brain delivery of IRdyeR800CW-labeled lysozyme, albumin, IgG mAb, and fibronectin were compared in C57BL/6 mice. The proteins with or without 13 μmol/kg HAV6 or ADTC5 were administered via tail vein injection. For lysozyme, the delivered doses were 21.6 and 54 nmol/kg. For albumin, IgG mAb, and fibronectin, the dose used was 21.6 nmol/kg. Fifteen minutes after IgG mAb administration with or without a peptide of the present technology, the animals were sacrificed and PBS with 0.5% Tween-20 was administered for cardiac perfusion to remove the remaining protein in the BBB microvessels. The brain and other organs such as lung, heart, spleen, liver and kidney were harvested and rinsed with PBS. Protein depositions in the brain and other organs were quantified by NIRF imaging using an Odyssey CLx NIRF scanner.
(§3) A second quantification method was done using brain homogenates. In this case, the brains were homogenized in 2.0 mL PBS by mechanical disruption and 200 μL of homogenized brain (n=8) was aliquoted to a 96-well plate followed by quantification using the Odyssey CLx scanner. The signal intensity was compared to calibration curve and normalized to brain weight and homogenate volume.

[2] = Peripheral organ deposition of IRdye800CW-labeled proteins by NIRF imaging; type: in vivo, C57BL/6 mice; settings: for IgG mAb deposition in other organs (liver, kidney, heart, spleen, lungs) compared to control: IgG mAb 21.6 nmol/kg + 13 μmol/kg peptide i.v., NIRF signal intensity, n=3
Experimental: as §1, §2

[3] = tested on: blood-brain barrier (BBB); test: In vivo brain delivery of IRdye800CW-lysozyme (15 kDa); design: species or system C57BL/6 mice; settings: for amount of lysozyme in the brain: IRdye800CW-lysozyme 54 nmol/kg i.v. alone or with 13 μmol/kg peptide, C57BL/6 mice
Experimental: Preparation of Stock and Standard Curves. The stock solution for IRDye800CW protein (i.e., lysozyme, 70 μg/mL) was prepared and stored at −80° C. The stock solution was later diluted with PBS to make the required standard solutions. To produce a standard calibration curve, 200 μL of blank brain homogenates was spiked with 10 μL standard solutions of various concentrations to yield a linear range from 0.5 to 50 ng/mL. The same method was employed for the sample's quality control (QC).
as §2, §3
(§4) Brain Perfusion. After euthanasia using CO2 chamber, mice were immediately subjected to cervical dislocation followed by removal of IRdye800CW-labeled protein from the brain capillaries using perfusion solution. In this case, a solution containing PBS with 0.2% Tween-20 was transcardially perfused to remove the remaining protein molecules in the brain endothelial microvessels. After perfusion, the brain was removed from the skull and subjected to capillary depletion.

[4] = tested on: blood-brain barrier (BBB); test: In vivo brain delivery of IRdye800CW-albumin (65 kDa); settings: IRdye800CW-albumin 21.6 nmol/kg i.v. alone or with 13 μmol/kg peptide, C57BL/6 mice
Experimental: as §2, §3, §4

[5] = tested on: blood-brain barrier (BBB); test: In vivo brain delivery of IRdye800CW-fibronectin (220 kDa); design: species or system C57BL/6 mice; settings: IRdye800CW-fibronectin 21.6 nmol/kg i.v. alone or with ADTC5 13 μmol/kg
Experimental: as §2, §3, §4

[6] = albumin 21.6 nmol/kg with 13 μmol/kg peptide, NIRF

| IgG mAb deposition in other organs (liver, kidney, heart, spleen, lungs) compared to control [2] | Molecule | average amount of IgG mAb in the brain [1] | brain delivery of IgG mAb compared to control (IgG mAb alone) [1] | other results |
| --- | --- | --- | --- | --- |
| no significant difference | CC(=O)N[C@@H](CO)C(=O)N[C@@H](Cc1c[nH]cn1)C(=O)N[C@@H](C)C(=O)N[C@H](C(=O)N[C@@H](CO)C(=O)N[C@@H](CO)C(N)=O)C(C)C [HAV6, acetyl-SHAVSS-NH2] (Ac-SHAVSS-NH2) | 3.4±0.4 pmol/g brain and 3.42±0.5 pmol/g brain and 3.4 ± 0.5 pmol/g brain | did not enhance; also recorded: not able to deliver mAb | amount of lysozyme in the brain [3]: 8.3±2.5 pmol/g brain; brain delivery of lysozyme compared to lysozyme alone ([3]; lysozyme 21.6 nmol/kg with 13 μmol/kg peptide): no significant improvement; distribution of mAb into liver ([2]; IgG mAb 21.6 nmol/kg with 13 μmol/kg peptide, compared to control): about the same; deposition of albumin in the spleen compared to control [2, 6]: enhanced; distribution of albumin into the liver compared to control [2, 6]: significantly enhanced; lysozyme deposition in the kidney ([2]; lysozyme 54 nmol/kg with 13 μmol/kg peptide, NIRF): followed by the HAV6-treated group; amount of albumin in the brain [4]: 15.5±3.1 pmol/g brain |
| no significant difference | CC(C)[C@@H]1NC(=O)[C@H](C)NC(=O)[C@H](Cc2c[nH]cn2)NC(=O)[C@H](CO)NC(=O)[C@H](CO)NC(=O)[C@H](CO)NC1=O [HAVN1, cyclo(1,6)SHAVSS] (cyclo(AVSSSH)) | 8.6±0.5 pmol/g brain | significantly enhanced; also recorded: significant difference |  |
| no significant difference | CC(C)[C@@H]1NC(=O)[C@H](C)NC(=O)[C@H](Cc2c[nH]cn2)NC(=O)[C@H](CO)NC(=O)[C@H](CO)NC1=O [HAVN2, cyclo(1,5)SHAVS] (cyclo(AVSSH)) | 8.8±0.6 pmol/g brain | significantly enhanced; also recorded: significant difference |  |
|  | Albumin [reference compound] |  |  | amount of albumin in the brain [4]: 11.8 ± 1.0 pmol/g brain; amount of albumin in the brain ([4]; listed as albumin): 11.8±1.0 pmol/g brain |
|  | Lysozyme [reference compound] |  |  | amount of lysozyme in the brain [3]: 0 ± 0 pmol/g brain; amount of lysozyme in the brain ([3]; listed as lysozyme): below the detection limits |
|  | fibronectin [reference compound] |  |  | NIRF signal of fibronectin in brain homogenates [5]: 33.026±2.080 ×10^3 A.U. |

| Molecule | IgG mAb deposition in other organs (liver, kidney, heart, spleen, lungs) compared to control [2] | average amount of IgG mAb in the brain [1] | brain delivery of IgG mAb compared to control (IgG mAb alone) [1] | other results |
| --- | --- | --- | --- | --- |
| CC(C)[C@@H]1NC(=O)[C@H](C)NC(=O)[C@H](Cc2c[nH]cn2)NC(=O)[C@H](CO)NC(=O)[C@H](C(C)C)NC(=O)[C@@H]2CCCN2C(=O)[C@@H]2CCCN2C(=O)[C@H](C(C)O)NC1=O (stereo partly drawn) (cyclo(AV[Thr(3ξ)]PPVSH)) | significant increases in deposition of IgG mAb in liver, kidney, spleen, and lungs; also recorded: significant differences in the IgG mAb signal in lung, kidney, spleen, and liver | 15.7±0.8 pmol/g brain | significantly better than in the PBS control; also recorded: significant difference |  |
| CC(=O)N[C@H](C(=O)N1CCC[C@H]1C(=O)N1CCC[C@H]1C(=O)N[C@H](C(=O)N[C@@H](CO)C(=O)N[C@@H](Cc1c[nH]cn1)C(=O)N[C@@H](C)C(=O)N[C@H](C(N)=O)C(C)C)C(C)C)C(C)O (stereo partly drawn) [linear ADTHAV] | significant effects on the distribution of IgG mAb in the heart and kidney; also recorded: significance differences in the IgG mAb signal intensities for kidney and heart | 11.8±0.5 pmol/g brain | significantly better than in the PBS control; also recorded: significant difference |  |

Source: US20220227815A1, “COMPOSITIONS AND METHODS USEFUL IN TREATING BRAIN DISEASES” (University of Kansas, priority 2019, published 2022)
